Assay: Vasorelaxant activity against carbachol chloride-induced contraction in guinea pig trachea treated 30 mins after carbachol chloride challenge
Assay type: functional, tissue-based, Cavia porcellus

| EC50 [µg/mL] | SMILES | EC50 (read-out: EC50) [µM] |
| --- | --- | --- |
| – | Cn1c(=O)c2[nH]cnc2n(C)c1=O [AMINOPHYLLINE] | 534 |
| 63.05 | COc1cc(O)c2c(=O)c(O)c(-c3ccccc3)oc2c1OC [GNAPHALIIN B] | – |
| 43.1 | COc1c(-c2ccccc2)oc2c(OC)c(O)cc(O)c2c1=O [GNAPHALIIN] | – |

From ChEMBL document CHEMBL1152356, “Solving the confusion of gnaphaliin structure: gnaphaliin A and gnaphaliin B identified as active principles of Gnaphalium liebmannii with tracheal smooth muscle relaxant properties” (J Nat Prod, 2009)
